Biological target: T1, Gastrin receptor (Cavia porcellus, UniProt H0VZC5)
T1 construct: The fundic mucosa is gently scraped off the submucosa; from tissue; host or cells: gastric glands from fundic mucosa of Hartley guinea pig
T1 sequence (H0VZC5 1-426): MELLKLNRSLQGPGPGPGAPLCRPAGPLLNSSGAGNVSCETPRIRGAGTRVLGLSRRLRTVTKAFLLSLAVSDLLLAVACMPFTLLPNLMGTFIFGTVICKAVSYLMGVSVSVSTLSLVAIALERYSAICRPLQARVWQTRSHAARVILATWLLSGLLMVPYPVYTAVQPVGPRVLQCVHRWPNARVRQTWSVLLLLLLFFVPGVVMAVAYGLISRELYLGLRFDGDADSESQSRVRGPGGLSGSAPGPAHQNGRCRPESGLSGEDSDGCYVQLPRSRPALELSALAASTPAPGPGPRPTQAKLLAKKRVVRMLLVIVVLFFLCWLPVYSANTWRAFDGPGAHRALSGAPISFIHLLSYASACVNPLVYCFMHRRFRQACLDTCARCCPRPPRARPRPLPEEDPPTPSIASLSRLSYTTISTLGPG
Experiment: Gastrin receptor binding assay (displacement of 125I-(Leu-15)-Gastrin from guinea pig fundic glands)
Parameters: species or system guinea pig (Hartley Strain)
Details: guinea pig fundic mucosa glands, 25° C., 30 min, read-out: In vitro Binding Data IC50 Gastrin
How it was run: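 Isolated gastric fundic glands from Hartley guinea pig (collagenase digestion, 2x10^5 glands/ml) incubated 30 min at 25 °C under 95% O2/5% CO2 with tracer ^125I-(Leu-15)-gastrin and compound in triplicate. Bound tracer collected on glass fiber filters and gamma-counted; nonspecific defined with 25 μM (Leu-15)-gastrin stock. IC50 = concentration giving 50% loss of specific binding, from log-concentration plot.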

CC(C)C[C@H](NC(=O)[C@H]1Cc2c([nH]c3ccccc23)CN1C(=O)Nc1cccc2ccccc12)C(=O)N[C@@H](CC(=O)O)C(N)=O [Example 67, N-[(3R)-2-(1-naphthylcarbamoyl)-1,2,3,4-tetrahydro-9H-pyrido[3,4-b]indole-3-carboxyl]-L-leucyl-L-aspartic acid amide]
IC50: 2000 nM

— patent publication US5162336A, “Tetrahydro-pyrido-indoles as cholecystokinin and gastrin antagonists” (Rhone-Poulenc Rorer Pharmaceuticals Inc., priority 1990, dated 1992)
